Source: patent US8435980B2 (AbbVie Inc., priority 2009, dated 2013)

target: T1, Cdc7 (BEV coexpressed huCDC7/DBF4) (Homo sapiens, UniProt O00311); assay: Cdc7 enzyme inhibition assay ([33P]ATP, biotinylated peptide substrate, FlashPlate); format: biochemical; details: Table 3; enzyme inhibition data (Ki)
T1 construct: made in house; host or cells: BEV (baculovirus expression vector) co-expression; insect cells are implied but no cell line is named
Procedure: Cdc7 (BEV coexpressed huCDC7/DBF4) is prepared internally. Cdc7 assays are conducted as follows with final concentrations as listed. […] Reactions are quenched after 1 hr by the addition of 90 μL stop buffer (50 mM EDTA, 2M NaCl). […] (Ki) for exemplary compounds.

T1 sequence (O00311 whole entry): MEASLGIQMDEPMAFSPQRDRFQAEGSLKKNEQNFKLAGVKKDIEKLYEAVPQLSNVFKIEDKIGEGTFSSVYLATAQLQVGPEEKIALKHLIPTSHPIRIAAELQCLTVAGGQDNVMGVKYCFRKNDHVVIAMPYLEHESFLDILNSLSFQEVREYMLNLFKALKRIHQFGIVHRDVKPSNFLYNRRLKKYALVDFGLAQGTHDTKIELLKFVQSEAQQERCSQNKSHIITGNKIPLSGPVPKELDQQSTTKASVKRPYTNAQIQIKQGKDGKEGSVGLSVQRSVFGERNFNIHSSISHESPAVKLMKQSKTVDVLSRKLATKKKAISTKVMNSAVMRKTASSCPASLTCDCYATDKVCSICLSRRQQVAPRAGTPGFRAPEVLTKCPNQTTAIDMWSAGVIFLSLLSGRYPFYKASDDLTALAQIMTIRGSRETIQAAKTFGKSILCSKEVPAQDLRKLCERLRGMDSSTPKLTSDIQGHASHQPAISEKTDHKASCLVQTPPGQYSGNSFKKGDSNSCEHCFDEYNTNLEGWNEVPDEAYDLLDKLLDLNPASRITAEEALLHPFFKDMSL
T1 sequence (Q9UBU7 whole entry partner): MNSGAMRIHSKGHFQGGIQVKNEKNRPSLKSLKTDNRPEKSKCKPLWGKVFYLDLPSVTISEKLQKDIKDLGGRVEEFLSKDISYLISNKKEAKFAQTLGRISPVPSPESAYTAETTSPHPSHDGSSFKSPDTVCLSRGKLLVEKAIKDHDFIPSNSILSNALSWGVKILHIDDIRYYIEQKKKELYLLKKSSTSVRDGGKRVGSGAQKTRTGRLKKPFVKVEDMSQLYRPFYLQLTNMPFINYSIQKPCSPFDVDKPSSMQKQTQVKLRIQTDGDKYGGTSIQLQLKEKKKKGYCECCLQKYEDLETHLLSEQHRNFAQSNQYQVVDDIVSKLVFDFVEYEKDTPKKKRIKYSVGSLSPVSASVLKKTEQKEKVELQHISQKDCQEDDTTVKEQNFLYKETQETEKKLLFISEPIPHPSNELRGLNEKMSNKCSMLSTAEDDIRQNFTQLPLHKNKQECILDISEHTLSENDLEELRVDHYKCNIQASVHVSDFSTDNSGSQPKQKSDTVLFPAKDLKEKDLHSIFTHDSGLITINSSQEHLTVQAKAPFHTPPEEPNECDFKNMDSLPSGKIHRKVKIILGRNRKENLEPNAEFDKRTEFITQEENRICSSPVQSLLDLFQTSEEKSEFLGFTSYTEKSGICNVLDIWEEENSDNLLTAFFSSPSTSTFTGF

Molecule	Ki [nM]
COc1cnc2[nH]cc(-c3cc(Cl)nc(N[C@H]4CC[C@H](NC(=O)CNC(C)C)CC4)c3)c2c1 [Example 446, N-(trans-4-{[6-chloro-4-(5-methoxy-1H-pyrrolo[2,3-b]pyridin-3-yl)pyridin-2-yl]amino}cyclohexyl)-N~2~-propan-2-ylglycinamide]	< 10
COc1cnc2[nH]cc(-c3cc(Cl)nc(NC4CCC(CC5CCC(NS(=O)(=O)c6c(C)noc6C)CC5)CC4)c3)c2c1 (stereo not drawn) [Example 447, N-{4-[(4-{[6-chloro-4-(5-methoxy-1H-pyrrolo[2,3-b]pyridin-3-yl)pyridin-2-yl]amino}cyclohexyl)methyl]cyclohexyl}-3,5-dimethyl-1,2-oxazole-4-sulfonamide]	< 10
COc1cnc2[nH]cc(-c3cc(Cl)nc(NC4CCCC(NC(=O)CN(C)C)C4)c3)c2c1 (stereo not drawn) [Example 448, N-(3-{[6-chloro-4-(5-methoxy-1H-pyrrolo[2,3-b]pyridin-3-yl)pyridin-2-yl]amino}cyclohexyl)-N~2~,N~2~-dimethylglycinamide]	< 10
Clc1cc(-c2c[nH]c3ncccc23)cc(Nc2ccc(N3CCN(Cc4ccccn4)CC3)cc2)n1 [Example 449, 6-chloro-N-{4-[4-(pyridin-2-ylmethyl)piperazin-1-yl]phenyl}-4-(1H-pyrrolo[2,3-b]pyridin-3-yl)pyridin-2-amine]	< 10
Clc1cc(-c2c[nH]c3ncccc23)cc(Nc2ccc(N3CCN(CC4CCCCC4)CC3)cc2)n1 [Example 450, 6-chloro-N-{4-[4-(cyclohexylmethyl)piperazin-1-yl]phenyl}-4-(1H-pyrrolo[2,3-b]pyridin-3-yl)pyridin-2-amine]	< 10
CC(C)CN1CCN(c2ccc(Nc3cc(-c4c[nH]c5ncccc45)cc(Cl)n3)cc2)CC1 [Example 451, 6-chloro-N-{4-[4-(2-methylpropyl)piperazin-1-yl]phenyl}-4-(1H-pyrrolo[2,3-b]pyridin-3-yl)pyridin-2-amine]	< 10
Nc1ccc(-c2cnc3[nH]cc(-c4cc(Cl)nc(N[C@H]5CC[C@H](NS(=O)(=O)C6CC6)CC5)c4)c3c2)cn1 [Example 452, N-[trans-4-({4-[5-(6-aminopyridin-3-yl)-1H-pyrrolo[2,3-b]pyridin-3-yl]-6-chloropyridin-2-yl}amino)cyclohexyl]cyclopropanesulfonamide]	< 10
O=S(=O)(N[C@H]1CC[C@H](Nc2cc(-c3c[nH]c4ncc(-c5cccnc5)cc34)cc(Cl)n2)CC1)C1CC1 [Example 453, N-[trans-4-({6-chloro-4-[5-(pyridin-3-yl)-1H-pyrrolo[2,3-b]pyridin-3-yl]pyridin-2-yl}amino)cyclohexyl]cyclopropanesulfonamide]	< 10
NS(=O)(=O)c1cccc(-c2cnc3[nH]cc(-c4cc(Cl)nc(N[C@H]5CC[C@H](NS(=O)(=O)C6CC6)CC5)c4)c3c2)c1 [Example 454, 3-{3-[2-chloro-6-({trans-4-[(cyclopropylsulfonyl)amino]cyclohexyl}amino)pyridin-4-yl]-1H-pyrrolo[2,3-b]pyridin-5-yl}benzenesulfonamide]	< 10
O=S(=O)(N[C@H]1CC[C@H](Nc2cc(-c3c[nH]c4ncc(-c5cncnc5)cc34)cc(Cl)n2)CC1)C1CC1 [Example 455, N-[trans-4-({6-chloro-4-[5-(pyrimidin-5-yl)-1H-pyrrolo[2,3-b]pyridin-3-yl]pyridin-2-yl}amino)cyclohexyl] cyclopropanesulfonamide]	< 10
C[C@@H](Nc1nc(Cl)cc(-c2c[nH]c3ncccc23)n1)c1ccccc1 [Example 456, 4-chloro-N-[(1R)-1-phenylethyl]-6-(1H-pyrrolo[2,3-b]pyridin-3-yl)pyrimidin-2-amine]	< 10
Oc1cccc(CNc2nc(Cl)cc(-c3c[nH]c4ncccc34)n2)c1 [Example 457, 3-({[4-chloro-6-(1H-pyrrolo[2,3-b]pyridin-3-yl)pyrimidin-2-yl]amino}methyl)phenol]	< 10
Oc1ccc(CNc2nc(Cl)cc(-c3c[nH]c4ncccc34)n2)cc1 [Example 458, 4-({[4-chloro-6-(1H-pyrrolo[2,3-b]pyridin-3-yl)pyrimidin-2-yl]amino}methyl)phenol]	< 10
CN(C)C1CCC(Nc2nc(Cl)cc(-c3c[nH]c4ncccc34)n2)CC1 (stereo not drawn) [Example 459, N′-[4-chloro-6-(1H-pyrrolo[2,3-b]pyridin-3-yl)pyrimidin-2-yl]-N,N-dimethylcyclohexane-1,4-diamine]	< 10
NC1CCC(CC2CCC(Nc3nc(Cl)cc(-c4c[nH]c5ncccc45)n3)CC2)CC1 (stereo not drawn) [Example 465, N-{4-[(4-aminocyclohexyl)methyl]cyclohexyl}-4-chloro-6-(1H-pyrrolo[2,3-b]pyridin-3-yl)pyrimidin-2-amine]	< 10
NCCNc1nc(Cl)cc(-c2c[nH]c3ncccc23)n1 [Example 466, N-[4-chloro-6-(1H-pyrrolo[2,3-b]pyridin-3-yl)pyrimidin-2-yl]ethane-1,2-diamine]	< 10
OCCNc1nc(Cl)cc(-c2c[nH]c3ncccc23)n1 [Example 467, 2-{[4-chloro-6-(1H-pyrrolo[2,3-b]pyridin-3-yl)pyrimidin-2-yl]amino}ethanol]	< 10

Molecule	Ki [nM]
NCCOCCOCCNc1nc(Cl)cc(-c2c[nH]c3ncccc23)n1 [Example 468, N-{2-[2-(2-aminoethoxy)ethoxy]ethyl}-4-chloro-6-(1H-pyrrolo[2,3-b]pyridin-3-yl)pyrimidin-2-amine]	< 10
O=C(NC1CCCC1)N[C@H]1CC[C@H](Nc2nc(Cl)cc(-c3c[nH]c4ncccc34)n2)CC1 [Example 470, 1-(trans-4-{[4-chloro-6-(1H-pyrrolo[2,3-b]pyridin-3-yl)pyrimidin-2-yl]amino}cyclohexyl)-3-cyclopentylurea]	< 10
CN(C)c1ccc(NC(=O)N[C@H]2CC[C@H](Nc3nc(Cl)cc(-c4c[nH]c5ncccc45)n3)CC2)cc1 [Example 471, 1-(trans-4-{[4-chloro-6-(1H-pyrrolo[2,3-b]pyridin-3-yl)pyrimidin-2-yl]amino}cyclohexyl)-3-[4-(dimethylamino)phenyl]urea]	< 10
O=C(CN1C(=O)c2ccccc2C1=O)N[C@H]1CC[C@H](Nc2nc(Cl)cc(-c3c[nH]c4ncccc34)n2)CC1 [Example 472, N-(trans-4-{[4-chloro-6-(1H-pyrrolo[2,3-b]pyridin-3-yl)pyrimidin-2-yl]amino}cyclohexyl)-2-(1,3-dioxo-1,3-dihydro-2H-isoindol-2-yl)acetamide]	< 10
O=C1NCCN1C(=O)N[C@H]1CC[C@H](Nc2nc(Cl)cc(-c3c[nH]c4ncccc34)n2)CC1 [Example 473, N-(trans-4-{[4-chloro-6-(1H-pyrrolo[2,3-b]pyridin-3-yl)pyrimidin-2-yl]amino}cyclohexyl)-2-oxoimidazolidine-1-carboxamide]	< 10
OCCOCCNc1nc(Cl)cc(-c2c[nH]c3ncccc23)n1 [Example 474, 2-(2-{[4-chloro-6-(1H-pyrrolo[2,3-b]pyridin-3-yl)pyrimidin-2-yl]amino}ethoxy)ethanol]	< 10
NCCOCCNc1nc(Cl)cc(-c2c[nH]c3ncccc23)n1 [Example 475, N-[2-(2-aminoethoxy)ethyl]-4-chloro-6-(1H-pyrrolo[2,3-b]pyridin-3-yl)pyrimidin-2-amine]	< 10
Clc1cc(-c2c[nH]c3ncccc23)nc(N[C@H]2CC[C@H](NC3CCCC3)CC2)n1 [Example 477, trans-N-[4-chloro-6-(1H-pyrrolo[2,3-b]pyridin-3-yl)pyrimidin-2-yl]-N′-cyclopentylcyclohexane-1,4-diamine]	< 10
O=C(CNC1CCCC1)N[C@H]1CC[C@H](Nc2nc(Cl)cc(-c3c[nH]c4ncccc34)n2)CC1 [Example 478, N-(trans-4-{[4-chloro-6-(1H-pyrrolo[2,3-b]pyridin-3-yl)pyrimidin-2-yl]amino}cyclohexyl)-N~2~-cyclopentylglycinamide]	< 10
CCCS(=O)(=O)N[C@H]1CC[C@H](Nc2nc(Cl)cc(-c3c[nH]c4ncccc34)n2)CC1 [Example 479, N-(trans-4-{[4-chloro-6-(1H-pyrrolo[2,3-b]pyridin-3-yl)pyrimidin-2-yl]amino}cyclohexyl)propane-1-sulfonamide]	< 10
CC(=O)N[C@H]1CC[C@H](Oc2nc(Cl)cc(-c3c[nH]c4ncccc34)n2)CC1 [Example 480, N-(trans-4-{[4-chloro-6-(1H-pyrrolo[2,3-b]pyridin-3-yl)pyrimidin-2-yl]oxy}cyclohexyl)acetamide]	10 to 100
O=S(=O)(N[C@H]1CC[C@H](Nc2nc(Cl)cc(-c3c[nH]c4ncccc34)n2)CC1)c1ccsc1 [Example 481, N-(trans-4-{[4-chloro-6-(1H-pyrrolo[2,3-b]pyridin-3-yl)pyrimidin-2-yl]amino}cyclohexyl)thiophene-3-sulfonamide]	< 10
O=S(=O)(N[C@H]1CC[C@H](Nc2nc(Cl)cc(-c3c[nH]c4ncccc34)n2)CC1)c1cccs1 [Example 482, N-(trans-4-{[4-chloro-6-(1H-pyrrolo[2,3-b]pyridin-3-yl)pyrimidin-2-yl]amino}cyclohexyl)thiophene-2-sulfonamide]	< 10
N-(3-{[6-chloro-4-(1H-pyrrolo[2,3-b]pyridin-3-yl)pyridin-2-yl]amino}cyclohexyl)-2-(dimethylamino)ethanesulfonamide [Example 154]	< 10
N-{2-[(3-{[6-chloro-4-(1H-pyrrolo[2,3-b]pyridin-3-yl)pyridin-2-yl]amino}cyclohexyl)sulfamoyl]ethyl}benzamide [Example 169]	< 10
{4-[(4-{[6-chloro-4-(1H-pyrrolo[2,3-b]pyridin-3-yl)pyridin-2-yl]amino}cyclohexyl)amino]piperidin-1-yl}(phenyl)methanone [Example 177]	< 10
